Results on four compounds are retold here after patent US20200239957A1, “PREDICTION AND TREATMENT OF HEART FAILURE” (The Regents of the University of Colorado, a body corporate, priority 2013, published 2020).

The conditions of test [1]: heart failure patients, continuous intravenous treatment, cited from earlier work.
The test system of a further test is β-ARs. The settings on record: heart failure patients, continuous intravenous treatment; cited from earlier work.
The next test concerns the target rtPDE3A (Homo sapiens, UniProt Q14432). The test is described as follows: PDE3 activity assay, cAMP hydrolysis with and without cilostazol. It counts as biochemical. The settings on record: 0.1 μmol/L cilostazol; read-out: inhibition of rtPDE3A, submaximal (printed as IC44). As to the method:
cAMP-hydrolytic activity was quantified according to the method of Kincaid and Manganiello (1988) as described in detail previously (Movesian et al., 1991). Briefly, microsomal fractions were added to a reaction mixture containing 0.3 mol/L NaHEPES, 0.6 mmol/L EGTA, […] MgCl2 (pH 7.5) and 0.1 μmol/L [^3H]cAMP (Perkin Elmer, Boston, Mass.). cAMP hydrolysis occurred for 10 minutes at 30° C., then the reaction was stopped by the addition of 10.1 mmol/L unlabeled cAMP and […] unlabeled 5′AMP in 0.25 mol/L HCl. The reaction mixture was neutralized with NaOH. [^3H]5′AMP was converted to [^3H]adenosine by incubation with Crotalus atrox venom (30 mg/ml) for 30 minutes at 30° C. The reaction mixture was then applied to QAE-Sephadex columns, and [^3H]adenosine was eluted with water. Cyclic AMP hydrolysis in pmol/min/mg was determined by measuring [^3H]adenosine in the eluent. PDE activity was measured in the presence and absence of 0.1 μmol/L cilostazol, a concentration that inhibits rtPDE3A submaximally (IC44); PDE3 activity was calculated by dividing the difference in activity in the presence and absence of cilostazol by the fractional inhibition of PDE3 activity at this concentration.

Another test has as its system PDE3A promoter. The test can be described thus: PDE3A promoter (INS/DEL) luciferase reporter in transfected NRVMs. It counts as cell-based, rat. The settings on record: for luciferase activity of the DEL promoter construct: DEL construct containing the CRE; for luciferase activity of the DEL promoter construct / up-regulation of PDE3A expression, INS construct (luciferase): 1 μmol/L dibutyryl cAMP or 5 μmol/L enoximone for 48 hours. On the procedure:
Neonatal rat ventricular myocytes (NRVMs) were prepared from the hearts of 2-day-old rat pups by enzymatic digestion as described (Simpson et al., 1982; Waspe et al., 1990; Singh et al., 2000).
Cloning of the PDE3A promoter region was performed using PCR primers that amplified the −1434/+440 region of the human promoter that contains the INS/DEL genotype. The resulting fragment was cloned in the Promega pGL3-basic vector using MluI and BglII sites as previously described (Sucharov et al., 2003). Cloning of the construct that lacks the cAMP response element (CRE) was done by amplifying the −1066/+440 region of the PDE3A promoter downstream from the CRE site.
Firefly luciferase plasmid DNA was transfected using the Lonza system as previously described (Sucharov et al., 2008). […] Luciferase activity was determined as previously described (Sucharov et al., 2003).

rtPDE3A, sequence (Q14432 whole entry): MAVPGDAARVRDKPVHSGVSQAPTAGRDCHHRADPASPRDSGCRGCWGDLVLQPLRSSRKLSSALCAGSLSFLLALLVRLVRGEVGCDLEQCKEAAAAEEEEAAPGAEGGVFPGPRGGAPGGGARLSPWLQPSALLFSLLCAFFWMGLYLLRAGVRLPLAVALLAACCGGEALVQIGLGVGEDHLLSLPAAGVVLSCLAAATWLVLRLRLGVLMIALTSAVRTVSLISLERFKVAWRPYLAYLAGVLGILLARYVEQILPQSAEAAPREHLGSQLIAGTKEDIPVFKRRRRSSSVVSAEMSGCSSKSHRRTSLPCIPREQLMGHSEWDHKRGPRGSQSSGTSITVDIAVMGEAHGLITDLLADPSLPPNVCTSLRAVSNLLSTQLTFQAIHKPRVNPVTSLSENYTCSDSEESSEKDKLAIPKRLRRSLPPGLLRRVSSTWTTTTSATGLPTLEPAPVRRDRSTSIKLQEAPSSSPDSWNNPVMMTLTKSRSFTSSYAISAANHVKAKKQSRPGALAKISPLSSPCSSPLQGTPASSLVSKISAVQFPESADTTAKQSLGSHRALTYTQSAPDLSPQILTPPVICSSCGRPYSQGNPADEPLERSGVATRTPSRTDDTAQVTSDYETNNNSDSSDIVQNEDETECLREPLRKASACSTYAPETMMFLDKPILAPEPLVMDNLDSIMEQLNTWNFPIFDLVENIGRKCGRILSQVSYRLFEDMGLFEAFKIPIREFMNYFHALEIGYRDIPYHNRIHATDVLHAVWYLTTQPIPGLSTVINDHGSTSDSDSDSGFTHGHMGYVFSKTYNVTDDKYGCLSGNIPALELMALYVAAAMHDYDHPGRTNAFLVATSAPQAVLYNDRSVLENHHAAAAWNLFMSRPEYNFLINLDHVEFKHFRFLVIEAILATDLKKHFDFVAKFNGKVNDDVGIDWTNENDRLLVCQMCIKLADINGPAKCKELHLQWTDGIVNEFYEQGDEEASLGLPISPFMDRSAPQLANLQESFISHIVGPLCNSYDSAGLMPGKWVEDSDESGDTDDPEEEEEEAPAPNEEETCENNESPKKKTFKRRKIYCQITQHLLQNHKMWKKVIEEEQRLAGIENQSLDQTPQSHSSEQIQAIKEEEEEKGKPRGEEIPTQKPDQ

As to `Nc1cc(-c2ccncc2)c[nH]c1=O` [amrinone], in test [1] (24 hours), the “cardiac output at 24 hours” value is given as “increase”. In test [1] (72 hours), the “cardiac output by 72 hours” value is on record as “return to baseline values”. The “β-ARs in lymphocytes of treated patients” value in the test with β-ARs is “Down-regulation and desensitization”.
Regarding `O=C1CCc2cc(OCCCCc3nnnn3C3CCCCC3)ccc2N1` [cilostazol], the inhibition at 0.1 µM on rtPDE3A was 44%.
`CCCC(=O)Nc1ncnc2c1ncn2[C@@H]1O[C@@H]2COP(=O)(O)O[C@H]2[C@H]1OC(=O)CCC` [dibutyryl cAMP]: in the test on PDE3A promoter, the “luciferase activity of the DEL promoter construct” value is reported as “increased luciferase activity” and the “up-regulation of PDE3A expression, INS construct (luciferase)” value is given as “no evidence of up-regulation”. Further, the “cAMP-induced increase in promoter activity, DEL construct with CRE sequence deleted” value in the test with PDE3A promoter (DEL construct lacking the CRE (-1066/+440), 48 hours) is given as “prevented”.
In the case of `CSc1ccc(C(=O)c2[nH]c(=O)[nH]c2C)cc1` [enoximone], in the test on PDE3A promoter, the “luciferase activity of the DEL promoter construct” value is recorded as “increased luciferase activity” and the “up-regulation of PDE3A expression, INS construct (luciferase)” value is reported as “no evidence of up-regulation”.
